Data from patent US11590117B2, “Treatment of a hematologic malignancy with 2-(4-chlorophenyl)-n-((2-(2,6-dioxopiperidin-3-yl)-1-oxoisoindolin-5-yl)methyl)-2,2-difluoroacetamide” (priority 2016, dated 2023).
Where two headings read alike, the source gives them in different places.

Tests used:
Format in all cases: cell-based, human
HNT-34 = assay: CellTiter-Glo (CTG) cell proliferation assay, 72 hours; details: for IC50: Homo sapiens
Procedure: (§1) Preparation of Solutions of Test Article: Compounds were plated into black 384-well plates (Corning Inc.) to a final DMSO volume of 0.1% assuming a maximal volume of 50 μL. A 10-point dose response starting at 10 μM with a 1:3 dilution was printed in duplicate by acoustic dispense using the EDC ATS-100 platform.
(§2) Cell Proliferation Assays: The effect of Compound 1 on the proliferation/viability of the hematological cell lines (Table 1 Table, Table 2 and Table 3), THLE-2, or PBMCs was assessed after 72 hours incubation using CTG (Promega), according to manufacturer's instructions. Hematological cell lines were dispensed into compound plates by a Multidrop™ Combi Reagent Dispenser (Thermo Scientific, Waltham, Mass.) at a concentration of 0.1 to 0.3×10^6 cells per mL in a 50 μL total volume. THLE-2 cells were seeded out at 1000 cells per well in 50 μL volume and incubated for 72 hours. At 72 hours, 25 μL per well of CTG was dispensed by a Multidrop™ Combi Reagent Dispenser and adenosine triphosphate (ATP) release by viable cells was measured as relative luminescence units after 30 minutes using the Envision platform.
(§3) Proliferation was assessed using the CellTitre-Glo® assay. Results for cultures incubated with Compound 1 were normalized to results for control cultures for each cell line. The IC50 for inhibition of cell growth by Compound 1 was determined for each cell line using ActivityBase software.
(§4) Cultures of 11 different AML cell lines were incubated 72 hours with Compound 1 at concentrations of 0.5 nM to 10 μM. Proliferation was assessed using the CellTitre-Glo® assay. Results for cultures incubated with Compound 1 were normalized to results for control cultures for each cell line. Inhibition of cell growth was also determined in THLE-2 cells at Compound 1 concentrations of 0.1 nM to 100 μM and in PBMCs at Compound 1 concentrations of 0.5 nM to […]. The Compound 1 therapeutic window was calculated using area under the curve (AUC; Activity Area [Barretina et al, Nature (2012) 483603-607] measurements (in arbitrary units) as determined using GraphPad Prism software for plots of cell proliferation vs concentration and dividing the AUC for the immortalized (but nontumorigenic) human THLE-2 hepatocyte cell line or PBMCs by the AUC for the AML cell line.

MOLM-13 = assay: as above
Procedure: as §1, §2, §3, §4

KG-1a = assay: as above
Procedure: as §1, §2, §3, §4

[1] = system: HR-MDS, sAML and normal bone marrow progenitors; assay: SL/M2 stromal co-culture colony replating assay (cell self-renewal assay); details: 1 nM and 10 nM; sAML and HR-MDS progenitors more than normal bone marrow progenitors
Procedure: Compound 1 at the indicated concentrations was added at the initiation of co-culture, with DMSO as a vehicle control. Colonies were scored to determine the effect of Compound 1 on cell survival (FIG. 36A) and self-renewal (FIG. 36B). ***, p<0.001, AML vs normal bone marrow controls treated with 1 nM of compound 1 (one-way ANOVA). **, p=0.01, AML vs normal bone marrow controls treated with 10 nM of Compound 1 (one-way ANOVA). Error bars represent mean values SD.
Methods. Mouse stromal cells SL/M2 stably expressing human interleukin-3 (IL-3), granulocyte colony stimulating factor (G-CSF) and stem cell factor (SCF) were cultured to confluency, followed by gamma-irradiation. Human CD34+ bone marrow cells isolated from 3 high-risk MDS patients (HR-MDS), 3 secondary AML patients arising from MDS (sAML) and 5 age-matched healthy donors were then cultured with inactivated SL/M2 cells for a week. Next, human progenitor cells were quantified by FACS and cells were plated in methylcellulose for colony forming assay (cell survival assay). After two weeks, 20-25 colonies were picked from each condition, resuspended and replated in fresh methylcellulose for 2nd round of colony forming assay (cell self-renewal assay).

PBMCs = assay: CellTiter-Glo (CTG) cell proliferation assay, 72 hours, anti-CD3 stimulated; details: for IC50: Homo sapiens, PBMC
Procedure: as §1, §2
For frozen PBMCs, cells were thawed at 37° C. for 2 minutes in RPMI with 10% FBS and cell counts and viability were measured on the ViCell as previously described. Peripheral blood mononuclear cells were washed and diluted to 1×10^6 cells per mL and dispensed by a Multidrop™ Combi Reagent Dispenser in a volume of 25 μL/well into the compound plates and incubated for 2 hours. After 2 hours, 25 μL of anti-CD3 antibody-bound beads (1 cell. 2 anti-human CD3 antibody-coated M-450 beads) were dispensed per well and incubated for a further 72 hours. After 72 hours, 15 μL of supernatants were collected for the analysis of interleukin (IL)-2 release using the Human IL-2 384-well Tissue Culture Kit (Meso Scale Diagnostics), according to the manufacturer's instructions, and the remaining cell suspension was processed with CTG.
In order to calculate the therapeutic window for Compound 1, the compound was counter-screened against the immortalized (but non-tumorigenic) human hepatocyte-derived cell line THLE-2 (Pfeifer, et al, Proc Natl Acad Sci USA 1993 90(11):5123-5127) and against primary human PBMCs. […] The Compound 1 therapeutic window for the 10 sensitive AML cell lines as compared to THLE-2 cells ranged from 4.1 (KG-1a) to 57 (HNT-34) (method 1) or from 5.7 (KG-1a) to 79.5 (HNT-34) (method 2); the Compound 1 therapeutic window as compared to PBMCs ranged from 2.6 (KG-1a) to 36 (HNT-34)), or from 1.5 (KG-1a) to 21 (HNT-34) (Table 6).
as §4
The effects of Compound 1 in healthy PBMCs were also assessed. Compound 1 was added to PBMC s from one donor at time zero and assessed at 72 hours. This was compared to PBMCs that were pre-activated and proliferating on anti-CD3 antibody-coated plates for 72 hours before Compound 1 was added and the cells were incubated for an additional 72 hours. HNT-34 cells were used as a sensitive positive control cell line. […]

[2] = HNT-34, AUC PBMCs divided by AUC AML cell line
[3] = HNT-34, AUC THLE-2 divided by AUC AML cell line
[4] = MOLM-13, AUC PBMCs divided by AUC AML cell line
[5] = MOLM-13, AUC THLE-2 divided by AUC AML cell line
[6] = AUC PBMCs divided by AUC AML cell line
[7] = AUC THLE-2 divided by AUC AML cell line

## O=C1CCC(N2Cc3cc(CNC(=O)C(F)(F)c4ccc(Cl)cc4)ccc3C2=O)C(=O)N1 (centres unmarked) [Compound 1, 2-(4-chlorophenyl)-N-((2-(2,6-dioxopiperidin-3-yl)-1-oxoisoindolin-5-yl)methyl)-2,2-difluoroacetamide]
HNT-34; [2]
  Therapeutic Window Method 1 As Compared with PBMCs: 36
  Therapeutic Window Method 2 As Compared with PBMCs: 21
HNT-34; [3]
  Therapeutic Window Method 1 As Compared with THLE-2 Cells: 57
  Therapeutic Window Method 2 As Compared with THLE-2 Cells: 79.5
HNT-34; HNT-34, Activity Area of proliferation vs concentration, 72 hours, 0.5 nM to 10 μM
  AUC: 6.9 arbitrary units
HNT-34; HNT-34, 72 h, read-out: Proliferation IC50 (mean ± SD)
  IC50: 0.003 ± 0.001 µM
HNT-34; HNT-34 as sensitive positive control cell line in PBMC comparison, 72 hours, read-out: CTG IC50
  IC50: 0.002 µM
MOLM-13; Homo sapiens, MOLM-13, 72 h, read-out: Proliferation IC50 (mean ± SD)
  IC50: 0.075 ± 0.033 µM
MOLM-13; [4]
  Therapeutic Window Method 1 As Compared with PBMCs: 6.3
  Therapeutic Window Method 2 As Compared with PBMCs: 3.7
MOLM-13; [5]
  Therapeutic Window Method 1 As Compared with THLE-2 Cells: 9.9
  Therapeutic Window Method 2 As Compared with THLE-2 Cells: 13.9
MOLM-13; MOLM-13, Activity Area of proliferation vs concentration, 72 hours, 0.5 nM to 10 μM
  AUC: 39.6 arbitrary units
KG-1a; [6]
  Therapeutic Window Method 1 As Compared with PBMCs: 2.6
  Therapeutic Window Method 2 As Compared with PBMCs: 1.5
KG-1a; [7]
  Therapeutic Window Method 1 As Compared with THLE-2 Cells: 4.1
  Therapeutic Window Method 2 As Compared with THLE-2 Cells: 5.7
KG-1a; Activity Area of proliferation vs concentration, 72 hours, 0.5 nM to 10 μM
  AUC: 96.9 arbitrary units
KG-1a; Homo sapiens, 72 h, read-out: Proliferation IC50 (mean ± SD)
  IC50: 0.021 ± 0.01 µM
[1]
  colony replating (self-renewal): significantly reduced the self-renewal
PBMCs; 72 h, PBMCs not pre-activated, 72 hours, read-out: CTG IC50
  IC50: 0.1 µM
PBMCs; 72 h, pre-activated PBMCs (72 hours on anti-CD3 plates before compound), 72 hours, CTG and viable cell count, read-out: antiproliferative IC50
  IC50: > 10 µM
PBMCs; 72 h, primary human PBMCs, 72 hours, read-out: antiproliferative IC50
  IC50: 0.12 µM
PBMCs; pre-activated PBMCs, CTG and viable cell count, read-out: antiproliferative IC50
  IC50: > 10 µM
PBMCs; PBMCs normal cells
  AUC Method 1: 251.1 arbitrary units
  AUC Method 2: 145.1 arbitrary units
